One data set is described as follows: HCV replicon assay (luciferase reporter, ET cell line). Format: cell-based. The conditions noted are these: Hepatitis C virus, HCV replicon luciferase activity in ET cells. In short, it runs like this: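 ET cells carry a stable luciferase-ubiquitin-neo/NS3-5B subgenomic HCV replicon with adaptive mutations. Compounds (0.1 nM to […], 0.5% DMSO) were added 24 h after plating, and luciferase was read 48-72 h later. EC50 came from 10-point 2-fold dilutions fitted to a Hill equation; TC50 was measured in parallel by WST-1.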
Regarding `O=C(c1cn2cc(-c3ccoc3)cc(C(F)(F)F)c2n1)N1CCC(c2cccc(F)c2)C1` (centres unmarked) [Compound 638, [3-(3-Fluoro-phenyl)-pyrrolidin-1-yl]-(6-furan-3-yl-8-trifluoromethyl-imidazo[1,2-a]pyridin-2-yl)-methanone], the inhibition at 10 µM came to 98.5%.
For the compound `O=C(c1cn2cc(-c3ccccc3)cc(C(F)(F)F)c2n1)N1CCC(c2cccc(F)c2)C1` (centres unmarked) [Compound 639, [3-(3-Fluoro-phenyl)-pyrrolidin-1-yl]-(6-phenyl-8-trifluoromethyl-imidazo[1,2-a]pyridin-2-yl)-methanone], the inhibition at 10 µM worked out at 71.9%.
On the same count and under the same terms, next, `O=C(c1nc2c(C(F)(F)F)cc(-c3ccccc3)cn2c1Br)N1CCC(c2cccc(F)c2)C1` (centres unmarked) [Compound 640, (3-Bromo-6-phenyl-8-trifluoromethyl-imidazo[1,2-a]pyridin-2-yl)-[3-(3-fluoro-phenyl)-pyrrolidin-1-yl]-methanone]: 88.1%; `O=C(c1nc2c(C(F)(F)F)cc(-c3ccccc3)cn2c1Cl)N1CCC(c2cccc(F)c2)C1` (centres unmarked) [Compound 641, (3-Chloro-6-phenyl-8-trifluoromethyl-imidazo[1,2-a]pyridin-2-yl)-[3-(3-fluoro-phenyl)-pyrrolidin-1-yl]-methanone]: 80.9%; `CC(=O)c1cc(C(F)(F)F)c2nc(C(=O)N3CCC(c4cccc(F)c4)C3)c(Cl)n2c1` (centres unmarked) [Compound 642, 1-{3-Chloro-2-[3-(3-fluoro-phenyl)-pyrrolidine-1-carbonyl]-8-trifluoromethyl-imidazo[1,2-a]pyridin-6-yl}-ethanone]: 73.8%.
`Nc1nc(-c2cc(C(F)(F)F)c3nc(C(=O)N4CCC(c5cccc(F)c5)C4)c(Cl)n3c2)cs1` (centres unmarked) [Compound 643, 2[6-(2-Amino-thiazol-4-yl)-3-chloro-8-trifluoromethyl-imidazo[1,2-a]pyridin-2-yl]-[3-(3-fluoro-phenyl)-pyrrolidin-1-yl]-methanone] registered an inhibition at 10 µM of 74.5%.
Same read-out and setting: for `CC(=O)Nc1nc(-c2cc(C(F)(F)F)c3nc(C(=O)N4CCC(c5cccc(F)c5)C4)c(Cl)n3c2)cs1` (centres unmarked) [Compound 644, N-(4-{3-Chloro-2-[3-(3-fluoro-phenyl)-pyrrolidine-1-carbonyl]-8-trifluoromethyl-imidazo[1,2-a]pyridin-6-yl}-thiazol-2-yl)-acetamide] the value was 59.6%; for `CC(C)c1cc(-c2ccccc2)cn2c(Br)c(C(=O)NCc3cccs3)nc12` [Compound 645, 3-Bromo-8-isopropyl-6-phenyl-imidazo[1,2-a]pyridine-2-carboxylic acid (thiophen-2-ylmethyl)-amide], 87.1%.
The compound `CC(C)c1cc(-c2ccccc2)cn2cc(C(=O)N3CCC(c4cccc(F)c4)C3)nc12` (centres unmarked) [Compound 646, [3-(3-Fluoro-phenyl)-pyrrolidin-1-yl]-(8-isopropyl-6-phenyl-imidazo[1,2-a]pyridin-2-yl)-methanone] came in with an inhibition at 10 µM of 42.4%.
On the same count and under the same terms, for `CC(C)c1cc(-c2ccccc2)cn2c(Br)c(C(=O)N3CCC(c4cccc(F)c4)C3)nc12` (centres unmarked) [Compound 647, (3-Bromo-8-isopropyl-6-phenyl-imidazo[1,2-a]pyridin-2-yl)-[3-(3-fluoro-phenyl)-pyrrolidin-1-yl]-methanone] the value was 58.6%; for `CC(C)Cn1cc(-c2cc(C(F)(F)F)c3nc(C(=O)NCc4cccs4)c(Cl)n3c2)cn1` [Compound 649, 3-Chloro-6-(1-isobutyl-1H-pyrazol-4-yl)-8-trifluoromethyl-imidazo[1,2-a]pyridine-2-carboxylic Acid(thiophen-2-ylmethyl)-amide], 62.7%; for `O=C(Cc1cn2cc(-c3ccoc3)cc(C(F)(F)F)c2n1)NCc1cccs1` [Compound 650, 2-[6-(furan-3-yl)-8-(trifluoromethyl)imidazo[1,2-a]pyridin-2-yl]-N-(thiophen-2-ylmethyl)acetamide], 65.7%.
The same measure, in the same setting: next, `O=C(Cc1cn2cc(-c3ccoc3)cc(C(F)(F)F)c2n1)N1CCC(c2cccc(F)c2)C1` (centres unmarked) [Compound 652, 1-[3-(3-fluorophenyl)pyrrolidin-1-yl]-2-[6-(furan-3-yl)-8-(trifluoromethyl)imidazo[1,2-a]pyridin-2-yl]ethanone]: 82.1%; `FC(F)(F)c1cc(-c2ccoc2)cn2cc(-c3cc(-c4ccccc4)no3)nc12` [Compound 654, 6-Furan-3-yl-2-(3-phenyl-isoxazol-5-yl)-8-trifluoromethyl-imidazo[1,2-a]pyridine]: 20.4%; `FC(F)(F)c1cc(-c2ccco2)cn2c(Cl)c(-c3nc(Cc4ccccc4)no3)nc12` [Compound 656, 2-(3-Benzyl-[1,2,4]oxadiazol-5-yl)-3-chloro-6-furan-2-yl-8-trifluoromethyl-imidazo[1,2-a]pyridine]: 34.1%.
In turn, `O=C(c1nc2c(C(F)(F)F)cc(-c3cn[nH]c3)cn2c1I)N1CCC(c2cccc(F)c2)C1` (centres unmarked) [Compound 659] yielded an inhibition at 10 µM of 93.8%.

Test in a further data set: not given
The settings on record: patients treated at currently recommended doses; cited from earlier work.
`NC(=O)c1ncn([C@@H]2O[C@H](CO)[C@@H](O)[C@H]2O)n1` [Ribavirin, ribavirin]: the “patients with significant hemolysis” value was 10-20%.

The record behind these values is patent US20120121540A1 (priority 2007, published 2012).
